In ChEMBL document CHEMBL5441456, “ASAP - SARS-CoV-2 nsp3 macrodomain dose response” (2024):
Several values for one entry are separate records, joined by “and”; a condition that tells them apart may be missing. Equal entries are not always repeated.

Biological target: Replicase polyprotein 1ab (Severe acute respiratory syndrome coronavirus 2, UniProt P0DTD1)
Experiment: Functional biochemical assay to identify treatments for viral infectious disease that targets SARS-COV-2 nsp3 macrodomain, whereby the mechanism of action displaces an ADP-Ribose modified peptide from the binding site. Utilizing a time-resolved fluorescence method to measure binding by reading the emitted fluorescence intensity in two wavelengths.

Row | Compound | IC50
1 | CC(C)[C@@H](Nc1ncnc2[nH]c(C(=O)N[C@H]3CCN(C)C3)cc12)c1ccc2c(c1)S(=O)(=O)CCC2 | 54 nM and 107 nM
2 | CCNC(=O)c1cc2c(N[C@@H](c3ccc4c(c3)S(=O)(=O)CCO4)C(C)C)ncnc2[nH]1 | 33 nM and 64 nM and 52 nM and 90 nM and 50 nM and 73 nM
3 | Cc1nn(C)cc1-c1cc2c(N[C@@H](c3ccc4c(c3)S(=O)(=O)CCC4)C(C)C)ncnc2[nH]1 | 36800 nM and 10800 nM
4 | CNC(=O)c1cccc(-c2cc3c(N[C@@H](c4ccc5c(c4)S(=O)(=O)CCC5)C(C)C)ncnc3[nH]2)c1 | 6740 nM
5 | CC(C)[C@H](Nc1ncnc2[nH]c(-c3cnn(CC(N)=O)c3)cc12)c1ccc2c(c1)S(=O)(=O)CCC2 | 21 nM and 16 nM and 31 nM (2×) and 15 nM and 23 nM (2×) and 25 nM
6 | CC(C)[C@@H](Nc1ncnc2[nH]c(-c3cnn(C)c3)cc12)c1ccc2c(c1)S(=O)(=O)NCC2 | 71 nM and 57 nM
7 | CC(C)[C@H](Nc1ncnc2[nH]c(-c3cnn(C)c3C#N)cc12)c1ccc2c(c1)S(=O)(=O)CCC2 | 18 nM and 15 nM and 13 nM
8 | CC(C)(C)[C@H](Nc1ncnc2[nH]c(-c3cnn(CC(N)=O)c3)cc12)c1ccc2c(c1)OCCO2 | 122 nM
9 | CNCc1cc(-c2cc3c(N[C@H](c4ccc5c(c4)S(=O)(=O)CCC5)C(C)C)ncnc3[nH]2)co1 | 2240 nM and 1910 nM and 971 nM
10 | CC(C)[C@H](Nc1ncnc2[nH]c(-c3cnn(C)c3C#N)cc12)c1ccc2c(n1)NC(=O)CO2 | 101 nM and 95 nM
11 | CNCc1cc(-c2cc3c(N[C@@H](c4ccc5c(c4)S(=O)(=O)NCC5)C(C)C)ncnc3[nH]2)co1 | 65 nM and 70 nM (2×) and 108 nM
12 | CC(C)[C@@H](Nc1ncnc2[nH]ccc12)c1ccc2c(c1)S(=O)(=O)CCO2 | 181 nM
13 | CC(C)[C@H](Nc1ncnc2[nH]c(-c3cnn(C)c3C#N)cc12)c1ccc2c(c1)NC(=O)CO2 | 176 nM
14 | CCNC(=O)c1cc2c(N[C@@H](c3ccc4c(c3)S(=O)(=O)NCC4)C(C)C)ncnc2[nH]1 | 124 nM and 117 nM and 95 nM and 197 nM
15 | CC(C)[C@H](Nc1ncnc2[nH]c(-c3cnn(C)c3)cc12)c1ccc2c(c1)S(=O)(=O)CCC2 | 9140 nM
16 | CC(C)[C@@H](Nc1ncnc2[nH]c(-c3ccc4nnn(C)c4c3)cc12)c1ccc2c(c1)S(=O)(=O)CCC2 | 100 nM and 85 nM
17 | CC(C)[C@@H](Nc1ncnc2[nH]c(-c3ccc4cncn4c3)cc12)c1ccc2c(c1)S(=O)(=O)CCC2 | 123 nM and 95 nM
18 | CC(C)[C@@H](Nc1ncnc2[nH]c(-c3cncc(S(C)(=O)=O)c3)cc12)c1ccc2c(c1)S(=O)(=O)CCC2 | 39 nM and 79 nM and 57 nM and 143 nM
19 | CNC(=O)c1cccc(-c2cc3c(N[C@H](c4ccc5c(c4)S(=O)(=O)CCC5)C(C)C)ncnc3[nH]2)c1 | 14 nM and 26 nM and 10 nM and 20 nM and 22 nM and 27 nM and 29 nM
20 | CC(C)[C@@H](Nc1c(N)cnc2[nH]ccc12)c1ccc2c(c1)S(=O)(=O)CCC2 | > 99500 nM
21 | CNc1nccc(N[C@H](c2ccc3c(c2)S(=O)(=O)CCC3)C(C)C)n1 | > 99500 nM

Row | Compound | IC50
22 | CC(C)[C@H](Nc1ncnc2[nH]cnc12)c1ccc2c(c1)S(=O)(=O)CCC2 | 743 nM
23 | CC(C)[C@@H](Nc1ncnc2[nH]ccc12)c1ccc2c(c1)S(=O)(=O)CO2 | 3620 nM and 2350 nM
24 | CCNC(=O)c1cc2c(N[C@@H](c3ccc4ncn(C)c(=O)c4c3)C(C)C)ncnc2[nH]1 | 409 nM and 455 nM
25 | CC(C)[C@H](Nc1ccnc2[nH]ccc12)c1ccc2c(c1)S(=O)(=O)CCC2 | > 99500 nM
26 | CC(C)[C@@H](Nc1ncnc2[nH]c(C(=O)NCC3(CO)CC3)cc12)c1ccc2c(c1)OCCO2 | 802 nM and 2140 nM
27 | CC(C)[C@@H](Nc1ccnc2[nH]ccc12)c1ccc2c(c1)S(=O)(=O)CCC2 | > 99500 nM
28 | CCNC(=O)c1cc2c(N[C@@H](c3ccc4c(n3)NC(=O)CO4)C(C)C)ncnc2[nH]1 | 1060 nM and 574 nM
29 | CNCc1cc(-c2cc3c(N[C@@H](c4ccc5c(c4)NC(=O)CO5)C(C)C)ncnc3[nH]2)co1 | 313 nM and 187 nM
30 | CC(C)[C@@H](Nc1cccc2nc[nH]c(=O)c12)c1ccc2c(c1)S(=O)(=O)CCC2 | > 99500 nM
31 | CCNC(=O)c1cc2c(N[C@@H](C(=O)NC3CCOCC3)C(C)C)ncnc2[nH]1 | > 99500 nM
32 | CCNC(=O)c1cc2c(N[C@@H](c3cccc(-c4ccc(OC)nc4)c3)C(C)C)ncnc2[nH]1 | 20900 nM and 17700 nM
33 | CCNC(=O)c1cc2c(N[C@@H](c3nc4ccccc4o3)C(C)C)ncnc2[nH]1 | 20500 nM and 17600 nM
34 | CC(C)(C)[C@H](Nc1ncnc2[nH]c(-c3cnn(CC(N)=O)c3)cc12)c1ccc2c(n1)OCCO2 | 14100 nM and 10700 nM
35 | CNC(=O)c1cc2c(N[C@H](c3ccc4c(c3)S(=O)(=O)CCC4)C(C)C)ncnc2[nH]1 | 1790 nM
36 | CCNC(=O)c1cc2c(N[C@@H](c3cc4c(cc3Cl)OCO4)C(C)C)ncnc2[nH]1 | 6220 nM and 4920 nM
37 | CC(C)[C@@H](Nc1ncnc2[nH]ccc12)c1ccc2c(c1)S(=O)(=O)NCC2 | 1270 nM and 967 nM
38 | COc1c(Cl)ncnc1N[C@@H](c1ccc2c(c1)S(=O)(=O)CCC2)C(C)C | > 99500 nM
39 | CCNC(=O)c1cc2c(N[C@@H](CCc3cccc(NS(C)(=O)=O)c3)C(C)C)ncnc2[nH]1 | > 99500 nM
40 | CC(C)[C@H](Nc1ncnc2[nH]c(-c3cnn(CC(N)=O)c3)cc12)c1ccc2c(n1)OCCO2 | 11600 nM
41 | CC(C)[C@H](Nc1ncnc2[nH]c(C(=O)N[C@H]3CCN(C)C3)cc12)c1ccc2c(c1)S(=O)(=O)CCC2 | 3150 nM
42 | COC(=O)c1cc2c(N[C@@H](c3ccc4c(c3)CCN4)C(C)C)ncnc2[nH]1 | 28800 nM and 37600 nM and 28400 nM

Row | Compound | IC50
43 | CC(C)[C@H](Nc1ncnc2[nH]cc(C(=O)NC3CC3)c12)c1ccc2c(c1)S(=O)(=O)CCC2 | 3900 nM and 6460 nM and 4280 nM
44 | CC(C)[C@@H](Nc1ncnc2[nH]c(C(=O)NC3CCN(C)CC3)cc12)c1ccc2c(c1)S(=O)(=O)CCC2 | 208 nM
45 | CCNC(=O)c1cc2c(N[C@@H](c3ccc4c(c3)S(=O)(=O)CCC4)C3CC3)ncnc2[nH]1 | 395 nM and 261 nM
46 | CCNC(=O)c1cc2c(N[C@@H](c3ccc4c(c3)CCN4C(=O)C3CC3)C(C)C)ncnc2[nH]1 | 24600 nM
47 | CCNC(=O)c1cc2c(N[C@@H](c3cccnc3OCC(F)(F)F)C(C)C)ncnc2[nH]1 | > 99500 nM
48 | CNC(=O)Cn1cc(-c2cc3c(N[C@H](c4ccc5c(c4)OCCO5)C(C)C)ncnc3[nH]2)cn1 | 213 nM and 224 nM
49 | CC(C)[C@H](Nc1ncnc2[nH]c(C(=O)N[C@@H]3CCN(C)C3)cc12)c1ccc2c(c1)S(=O)(=O)CCC2 | 3160 nM and 2860 nM and 3790 nM and 1620 nM
50 | COc1ccc([C@@H](NC(=O)c2ncnc3[nH]ccc23)C(C)(C)c2nnn[nH]2)cc1 | 1690 nM and 3910 nM
51 | CC(C)[C@H](Nc1ncnc2[nH]c(-c3cnn(C)c3C#N)cc12)c1ccc2c(c1)OCCO2 | 238 nM and 901 nM
52 | CC(C)[C@@H](Nc1ncnc2[nH]c(C3=CCS(=O)(=O)C3)cc12)c1ccc2c(c1)S(=O)(=O)CCC2 | 107 nM and 171 nM and 117 nM
53 | Cn1ncc(-c2cc3c(N[C@H](c4ccc5c(n4)OCCO5)C(C)(C)C)ncnc3[nH]2)c1C#N | 4960 nM and 2330 nM and 3080 nM and 2420 nM and 10800 nM
54 | CC(C)[C@@H](Nc1ncnc2[nH]c(C(=O)NC3CN(C)C3)cc12)c1ccc2c(c1)S(=O)(=O)CCC2 | 189 nM
55 | CCNC(=O)c1cc2c(N[C@@H](CC(=O)Nc3cnn(C(C)C)c3)C(C)C)ncnc2[nH]1 | 27700 nM and 23500 nM
56 | CCNC(=O)c1cc2c(N[C@H](c3ccc4c(c3)S(=O)(=O)CCC4)C(C)C)ncnc2[nH]1 | 1280 nM
57 | CC(C)[C@@H](Nc1ncnc2[nH]ccc12)c1ccc2c(c1)SCCO2 | 1870 nM and 1940 nM
58 | CC(C)[C@H](Nc1ncnc2[nH]c(-c3cnn(CC(N)=O)c3)cc12)c1ccc2c(c1)NC(=O)CO2 | > 99500 nM
59 | CCNC(=O)c1cc2c(N[C@@H](c3cnc(NC(C)=O)s3)C(C)C)ncnc2[nH]1 | 4350 nM and 5380 nM and 4140 nM
60 | CNC(=O)c1cc2c(N[C@H](c3ccc4c(c3)NC(=O)CO4)C(C)C)ncnc2[nH]1 | 5360 nM and 961 nM and 1340 nM and 1080 nM
61 | CC(C)[C@@H](Nc1ncnc2[nH]ccc12)c1ccc2c(c1)[S+]([O-])CCO2 (stereo partly specified) | 604 nM and 628 nM
